From US6448269B1 (Eli Lilly and Company, priority 1993, dated 2002)
Structures can show the parent of a compound that is named as a salt.

Key:
GPIIb-IIIa = molecular target: T1, GPIIb-IIIa (Homo sapiens, UniProt P05106+P08514); test: ELISA IIb-IIIa assay (fibrinogen binding to immobilized GPIIb-IIIa); conditions: purified platelet GPIIb-IIIa receptor coated on ELISA plates; biotin-labeled fibrinogen 10 nM, 3 hours at 25° C.
T1 construct: Purified platelet GPIIb-IIIa receptor was prepared as described by Fitzgerald; from tissue; host or cells: platelets
T1 sequence (P08514 32-887 limits assumed): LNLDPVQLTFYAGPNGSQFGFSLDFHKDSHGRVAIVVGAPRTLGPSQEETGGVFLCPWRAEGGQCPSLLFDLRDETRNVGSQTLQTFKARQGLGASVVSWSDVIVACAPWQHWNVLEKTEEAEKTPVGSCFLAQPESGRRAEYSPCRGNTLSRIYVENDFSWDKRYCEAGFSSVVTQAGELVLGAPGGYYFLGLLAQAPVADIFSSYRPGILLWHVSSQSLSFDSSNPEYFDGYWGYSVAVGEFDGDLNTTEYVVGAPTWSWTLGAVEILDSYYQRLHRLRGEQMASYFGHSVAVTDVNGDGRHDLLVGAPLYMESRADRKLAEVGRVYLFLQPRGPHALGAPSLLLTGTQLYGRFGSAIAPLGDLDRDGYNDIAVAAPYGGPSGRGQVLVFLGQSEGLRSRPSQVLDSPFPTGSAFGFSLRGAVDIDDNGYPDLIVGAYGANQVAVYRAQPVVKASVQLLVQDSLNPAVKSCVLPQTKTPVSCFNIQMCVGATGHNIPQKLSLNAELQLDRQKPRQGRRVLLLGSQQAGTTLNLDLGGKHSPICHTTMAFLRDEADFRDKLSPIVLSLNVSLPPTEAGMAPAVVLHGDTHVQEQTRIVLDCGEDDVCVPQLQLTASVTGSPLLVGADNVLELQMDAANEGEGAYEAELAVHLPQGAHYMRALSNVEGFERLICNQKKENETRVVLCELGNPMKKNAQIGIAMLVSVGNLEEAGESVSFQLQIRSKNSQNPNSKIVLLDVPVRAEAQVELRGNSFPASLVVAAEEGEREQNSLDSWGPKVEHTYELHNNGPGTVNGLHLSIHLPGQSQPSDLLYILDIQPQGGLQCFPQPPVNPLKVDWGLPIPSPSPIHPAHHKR
T1 sequence (P05106 27-788): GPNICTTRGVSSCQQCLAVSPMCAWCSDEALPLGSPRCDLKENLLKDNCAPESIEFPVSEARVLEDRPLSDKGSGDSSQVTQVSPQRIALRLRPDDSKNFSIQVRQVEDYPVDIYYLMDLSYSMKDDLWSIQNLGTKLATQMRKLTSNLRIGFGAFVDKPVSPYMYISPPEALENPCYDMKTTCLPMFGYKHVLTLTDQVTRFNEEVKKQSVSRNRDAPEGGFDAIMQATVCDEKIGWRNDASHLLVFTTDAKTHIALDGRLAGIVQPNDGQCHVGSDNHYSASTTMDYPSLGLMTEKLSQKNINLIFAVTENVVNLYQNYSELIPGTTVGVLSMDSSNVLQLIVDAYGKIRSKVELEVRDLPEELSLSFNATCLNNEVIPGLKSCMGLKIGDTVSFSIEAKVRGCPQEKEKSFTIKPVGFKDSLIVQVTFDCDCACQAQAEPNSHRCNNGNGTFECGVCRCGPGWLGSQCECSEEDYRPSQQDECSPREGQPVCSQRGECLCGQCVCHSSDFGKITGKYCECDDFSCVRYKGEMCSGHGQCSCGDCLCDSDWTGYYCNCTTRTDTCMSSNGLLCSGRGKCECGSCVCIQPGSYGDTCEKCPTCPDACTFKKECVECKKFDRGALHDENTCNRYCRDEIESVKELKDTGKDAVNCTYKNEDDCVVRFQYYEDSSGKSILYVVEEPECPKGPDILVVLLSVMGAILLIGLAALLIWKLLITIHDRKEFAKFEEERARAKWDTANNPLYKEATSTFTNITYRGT
Description: In the following assay, GPIIb-IIIa is prepared in purified form, by a method such as described by Fitzgerald, L. A., et al., Anal Biochem (1985) 151:169-177, (the disclosure of which is incorporated herein by reference). GPIIb-IIIa is coated onto microtiter plates. The coated support is then contacted with fibrinogen and with the test material (e.g., compounds of Formula I) and incubated for a sufficient time to permit maximal binding of fibrinogen to the immobilized GPIIb-IIIa. Fibrinogen is typically provided at a concentration of about 5-50 nM and the test material can, if desired, be added at a series of dilution. Typical incubations are 2 to 4 hours at 25° C., the time and temperature being interdependent.
After incubation, the solution containing the fibrinogen and test material is removed and the level of binding of fibrinogen measured by quantitating bound fibrinogen to GPIIb-IIIa. Any suitable means of detection may be used, but it is convenient to employ labeled fibrinogen, for example using biotinylated labels. Such methods are well known in the art.
Purified platelet GPIIb-IIIa receptor was prepared as described by Fitzgerald, L. A., et al., Anal Biochem (1985) 151:169-177 (1985). Vitronectin receptor was prepared as described by Smith, J. W., J. Biol Chem (1988) 263:18726-18731. After purification, the receptors were stored in 0.1% Triton X-100 at 0.1-1.0 mg/ml.
The receptors were coated to the wells of 96-well flat-bottom ELISA plates (Linbro EIA-Plus microtiter plate, Flow Laboratories) after diluting 1:200 with a solution of 20 mM Tris-HCl, 150 mM NaCl, 1 mM CaCl2, pH 7.4, to reduce the Triton X-100 concentration to below its critical micellar concentration and adding an aliquot of 100 ul to each well. The wells were all allowed to incubate overnight at 4° C., and then aspirated to dryness. Additional sites were blocked by the addition of bovine serum albumin (BSA) at 35 mg/ml in the above buffer for 2 hours at 30° C. to prevent nonspecific binding. The wells were then washed once with binding buffer ([…] Tris-HCl, 100 mM NaCl 2 mM CaCl2, 1 mg/ml BSA).
The corresponding ligands (fibrinogen, von Willebrand Factor, or vitronectin) were conjugated to biotin using commercially available reagents and standard protocols. The labeled ligands were added to the receptor-coated wells at final concentration of 10 nM (100 ul/well) and incubated for 3 hours at 25° C. in the presence or absence of the test samples. After incubation, the wells are aspirated to dryness and bound ligand is quantitated.
The bound protein is detected by the addition of antibiotin antibody conjugated to alkaline phosphatase followed by addition of substrate (p-nitrophenyl phosphate), and determination of the optical density of each well at […]. Decreased color development is observed in wells incubated with test samples which inhibit binding of ligand to receptor.

[1] = system: human platelet-rich plasma; test: Platelet aggregation assay (Aggregation-Human PRP/ADP); assay type: cell-based; conditions: 1 min; human platelet-rich plasma incubated with compound 1 minute at 37° C.; ADP-induced aggregation; read-out: Agg: Human PRP/ADP IC50uM
Description: Platelet-rich plasma was prepared from healthy human volunteers for use in determining inhibition of platelet aggregation by the compounds.
Platelet-rich plasma was prepared at room temperature by centrifugation of the citrated whole blood at 100×g for 12 minutes. The platelet rich plasma contained approximately 200-400,000 platelets/μl.
Platelet-poor plasma was prepared by centrifugation of citrated whole blood at 12,000×g for 2 minutes.
Platelet aggregation was assayed in a 4-channel platelet aggregation profiler (PAP-4, Biodata, Hatboro, Pa.) according to the manufacturers directions. Inhibition of platelet aggregation was studied by adding varying amounts of […] to stirred human platelet-rich plasma. Specifically, the human platelet-rich plasma was incubated with the compound being tested for 1 minute at 37° C. prior to the addition of a variety of aggregating agents most often ADP 5 μM, but also 1 μg/ml collagen, 1 μM U46619 and 0.3 μM platelet activating factor.

| Structure (SMILES) | IC50 (GPIIb-IIIa) | IC50 [1] |
| --- | --- | --- |
| CCOC(=O)CCC1(C)CCc2cc(NC(=O)c3ccc(C(=N)N)cc3)ccc2O1 (racemic) [Example 50, Ethyl rac-3-(6-(N-(4-(Aminoiminomethyl)benzoyl)amino)-3,4-dihydro-2-methyl-2H-1-benzopyran-2-yl)propanoate Hydrochloride] | 3930 nM | 100 µM |
| CC1(CCC(=O)O)C=Cc2cc(OCc3ccc(C(=N)N)cc3)ccc2O1 (racemic) [Example 53, rac-3-(6-(4-(Aminoiminomethyl)phenylmethoxy)-2-methyl-2H-1-benzopyran-2-yl)propanoic Acid Hydrochloride] | 720 nM | 21 µM |
| N=C(N)CCCCCOc1ccc2c(c1)CCC(CC(=O)O)O2 (racemic) [Example 55, rac-(6-(5-(Aminoiminomethyl)pentoxy)-3,4-dihydro-2H-1-benzopyran-2-yl)acetic Acid Trifluoroacetate] | 3460 nM | > 100 µM |
| CC1(CCC(=O)O)CCc2cc(NC(=O)c3ccc(C(=N)N)cc3)ccc2O1 (racemic) [Example 56, rac-3-(6-(N-(4-(Aminoiminomethyl)benzoyl)amino)-3,4-dihydro-2-methyl-2H-1-benzopyran-2-yl)propanoic Acid] | 140 nM | 0.9 µM |
| CCOC(=O)CC1CCc2cc(NC(=O)c3ccc(C(=N)NC)cc3)ccc2O1 (racemic) [Example 57, Hydrochloride] | > 10000 nM | 0.66 µM |
| CNC(=N)c1ccc(C(=O)Nc2ccc3c(c2)CCC(CC(=O)O)O3)cc1 (racemic) [Example 58, rac-(3,4-Dihydro-6-(N-(4-((methylamino)iminomethyl)benzoyl)amino)-2H-1-benzopyran-2-yl)acetic Acid] | 33.4 nM | 0.28 µM |
| CC1(CCCCCCCCC(=O)O)C=Cc2cc(C(=N)N)ccc2O1 (racemic) [Example 60, rac-9-(6-Aminoiminomethyl-2-methyl-2H-1-benzopyran-2-yl)nonanoic Acid] | 1800 nM | > 10 µM |
| O=C(O)CC1CCc2cc(OCCC3CCNCC3)ccc2O1 (racemic) [Example 61, rac-(3,4-Dihydro-6-(2-(piperidin-4-yl)ethoxy)-2H-1-benzopyran-2-yl)acetic Acid Trifluoroacetate] | > 1000 nM | 100 µM |
| N=C(N)c1ccc(C(=O)Nc2ccc3c(c2)CCC(CC(=O)O)C3=O)c(Cl)c1 (racemic) [Example 63, rac-(6-(N-(4-Aminoiminomethyl-2-chlorobenzoyl)amino)-1-oxo-1,2,3,4-tetrahydronaphthalen-2-yl)acetic Acid] | 9.4 nM | 0.092 µM |
| CCOC(=O)CC1CCc2cc(NC(=O)c3ccc(NC(=N)N)cc3)ccc2O1 (racemic) [Example 64, Ethyl rac-(6-(N-(4-((Aminoiminomethyl)amino)benzoyl)amino)-3,4-dihydro-2H-1-benzopyran-2-yl)acetate] | 800 nM | 11 µM |
| N=C(N)Nc1ccc(C(=O)Nc2ccc3c(c2)CCC(CC(=O)O)O3)cc1 (racemic) [Example 65, rac-(6-(N-(4-((Aminoiminomethyl)amino)benzoyl)amino)-3,4-dihydro-2H-1-benzopyran-2-yl)acetic Acid] | 180 nM | 4.8 µM |
| CCOC(=O)CC1CCc2cc(NC(=O)c3ccc(C(=N)N)cc3F)ccc2O1 (racemic) [Example 69, Ethyl rac-(6-(N-(4-(Aminoiminomethyl)-2-fluorobenzoyl)amino)-3,4-dihydro-2H-1-benzopyran-2-yl)acetate Hydrochloride] | 9 nM | 0.16 µM |
| N=C(N)c1ccc(C(=O)Nc2ccc3c(c2)CCC(CC(=O)O)O3)c(F)c1 (racemic) [Example 70, rac-(6-(N-(4-(Aminoiminomethyl)-2-fluorobenzoyl)amino)-3,4-dihydro-2H-1-benzopyran-2-yl)acetic Acid] | 1.3 nM | 0.082 µM |
| CCNC(=N)c1ccc(C(=O)Nc2ccc3c(c2)CCC(CC(=O)OCC)O3)cc1 (racemic) [Example 71, Hydrochloride] | > 10000 nM | 1.5 µM |
| CCNC(=N)c1ccc(C(=O)Nc2ccc3c(c2)CCC(CC(=O)O)O3)cc1 (racemic) [Example 72, rac-(3,4-Dihydro-6-(N-(4-((ethylamino)iminomethyl)benzoyl)amino)-2H-1-benzopyran-2-yl)acetic Acid] | 18.5 nM | 0.28 µM |
| CCOC(=O)CC1CCc2cc(NC(=O)c3ccc(C(=N)N(C)C)cc3)ccc2O1 (racemic) [Example 73, Hydrochloride] | > 10000 nM | 1.2 µM |
| N=C(N)c1ccc(C(=O)Nc2ccc3c(c2)CCC(CC(=O)O)O3)c(Cl)c1 (racemic) [Example 76, rac-(6-(N-(4-(Aminoiminomethyl)-2-chlorobenzoyl)amino)-3,4-dihydro-2H-1-benzopyran-2-yl)acetic Acid] | 14 nM | 0.56 µM |
